From patent publication US20230219986A1, “NOVEL AMINOPYRIMIDINE EGFR INHIBITOR” (QILU PHARMACEUTICAL CO., LTD., priority 2020, published 2023) come the findings set out here.

In one assay the target is T1, wild-type EGFR (Homo sapiens, UniProt P00533).
T1 construct: purchased Signalchem
Briefly: Enzymology experiment in vitro (HTRF/FRET kinase activity), wild-type EGFR. The settings on record: HTRF KinEASE-TK, read-out: EGFR (WT) IC50. The class given is biochemical. In a few lines: (§1)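 HTRF KinEASE-TK format: EGFR enzyme preincubated with compound 10 min at room temperature, then peptide substrate plus ATP added for 40 min. Detection with EDTA, XL665-streptavidin and Eu³⁺-labeled antibody for 1 h.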
On the technique in general: TR-FRET usually uses a lanthanide donor and a delayed reading to cut background.

The target of assay [1] is T2, L858R/T790M/C797S triple mutant EGFR (Homo sapiens, UniProt P00533, C797S/L858R/T790M).
T2 construct: purchased Signalchem
T2 sequence (P00533 25-1210 T790M/C797S/L858R): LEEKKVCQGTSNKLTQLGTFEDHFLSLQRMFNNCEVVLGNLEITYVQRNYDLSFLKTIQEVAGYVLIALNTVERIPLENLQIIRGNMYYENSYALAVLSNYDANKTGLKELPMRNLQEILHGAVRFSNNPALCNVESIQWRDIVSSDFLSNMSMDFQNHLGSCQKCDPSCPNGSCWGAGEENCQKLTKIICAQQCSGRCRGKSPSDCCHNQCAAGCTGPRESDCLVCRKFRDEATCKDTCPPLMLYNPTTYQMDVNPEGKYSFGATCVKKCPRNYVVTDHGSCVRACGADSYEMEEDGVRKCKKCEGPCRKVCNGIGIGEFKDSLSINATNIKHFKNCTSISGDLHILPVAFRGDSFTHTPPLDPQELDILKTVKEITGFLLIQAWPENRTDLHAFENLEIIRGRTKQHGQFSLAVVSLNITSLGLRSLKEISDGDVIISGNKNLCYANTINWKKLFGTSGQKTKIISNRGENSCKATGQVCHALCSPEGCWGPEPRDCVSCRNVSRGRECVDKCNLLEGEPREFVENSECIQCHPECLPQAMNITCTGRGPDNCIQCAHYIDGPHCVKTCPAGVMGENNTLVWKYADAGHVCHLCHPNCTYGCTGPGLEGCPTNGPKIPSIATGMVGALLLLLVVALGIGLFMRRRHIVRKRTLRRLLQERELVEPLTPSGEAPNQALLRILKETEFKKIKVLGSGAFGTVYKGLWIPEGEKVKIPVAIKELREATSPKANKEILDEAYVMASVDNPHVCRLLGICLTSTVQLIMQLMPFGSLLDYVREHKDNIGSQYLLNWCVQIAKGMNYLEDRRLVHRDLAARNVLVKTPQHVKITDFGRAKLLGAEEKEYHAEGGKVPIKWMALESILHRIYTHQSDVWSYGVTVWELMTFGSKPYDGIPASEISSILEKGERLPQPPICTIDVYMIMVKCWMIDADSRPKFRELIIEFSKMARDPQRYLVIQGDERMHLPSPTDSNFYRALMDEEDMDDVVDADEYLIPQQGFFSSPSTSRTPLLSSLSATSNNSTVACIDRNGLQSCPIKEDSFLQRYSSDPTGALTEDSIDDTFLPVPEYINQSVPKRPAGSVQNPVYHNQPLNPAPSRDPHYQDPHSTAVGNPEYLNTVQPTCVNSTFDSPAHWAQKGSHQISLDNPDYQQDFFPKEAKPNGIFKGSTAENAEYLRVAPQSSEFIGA
Briefly: Enzymology experiment in vitro (HTRF/FRET kinase activity), L858R/T790M/C797S triple mutant EGFR. The assay is classed as biochemical. As to conditions: HTRF KinEASE-TK, read-out: EGFR (L858R/T790M/C797S) IC50. Summed up:
as §1

The test system of assay [2] is EGFR wild-type cell line A431. Briefly: Cell proliferation inhibition experiment (CellTiter-Glo), A431. The assay is classed as cell-based. The settings on record: Homo sapiens, A-431, 72 h, A431 cells, Cell Titer-Glo, read-out: A431 EGFR WT IC50. In a few lines: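 A431 cells, 800 per well, were cultured 24 h and then exposed to serially diluted compound (0.1% DMSO final) for 72 h at 37° C., 5% CO2.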

The target of assay [3] is Ba/F3 De119/T790M/C797S EGFR triple mutant cell line (Homo sapiens, UniProt P00533, T790M/C797S, cells depend on it, form not given). Description: Cell proliferation inhibition experiment (CellTiter-Glo), Ba/F3 De119/T790M/C797S. The class given is cell-based. As to conditions: Ba/F3 Del19/T790M/C797S EGFR triple mutant cells, 72 hours, Cell Titer-Glo; read-out: Ba/F3 (Del19/T790M/C797S) IC50. For orientation: ATP-based viability assays read luminescence as a measure of living cells.
Sequence of Ba/F3 De119/T790M/C797S EGFR triple mutant cell line (P00533 with tags, fused parts or gaps DEL746-750/T790M/C797S, form open): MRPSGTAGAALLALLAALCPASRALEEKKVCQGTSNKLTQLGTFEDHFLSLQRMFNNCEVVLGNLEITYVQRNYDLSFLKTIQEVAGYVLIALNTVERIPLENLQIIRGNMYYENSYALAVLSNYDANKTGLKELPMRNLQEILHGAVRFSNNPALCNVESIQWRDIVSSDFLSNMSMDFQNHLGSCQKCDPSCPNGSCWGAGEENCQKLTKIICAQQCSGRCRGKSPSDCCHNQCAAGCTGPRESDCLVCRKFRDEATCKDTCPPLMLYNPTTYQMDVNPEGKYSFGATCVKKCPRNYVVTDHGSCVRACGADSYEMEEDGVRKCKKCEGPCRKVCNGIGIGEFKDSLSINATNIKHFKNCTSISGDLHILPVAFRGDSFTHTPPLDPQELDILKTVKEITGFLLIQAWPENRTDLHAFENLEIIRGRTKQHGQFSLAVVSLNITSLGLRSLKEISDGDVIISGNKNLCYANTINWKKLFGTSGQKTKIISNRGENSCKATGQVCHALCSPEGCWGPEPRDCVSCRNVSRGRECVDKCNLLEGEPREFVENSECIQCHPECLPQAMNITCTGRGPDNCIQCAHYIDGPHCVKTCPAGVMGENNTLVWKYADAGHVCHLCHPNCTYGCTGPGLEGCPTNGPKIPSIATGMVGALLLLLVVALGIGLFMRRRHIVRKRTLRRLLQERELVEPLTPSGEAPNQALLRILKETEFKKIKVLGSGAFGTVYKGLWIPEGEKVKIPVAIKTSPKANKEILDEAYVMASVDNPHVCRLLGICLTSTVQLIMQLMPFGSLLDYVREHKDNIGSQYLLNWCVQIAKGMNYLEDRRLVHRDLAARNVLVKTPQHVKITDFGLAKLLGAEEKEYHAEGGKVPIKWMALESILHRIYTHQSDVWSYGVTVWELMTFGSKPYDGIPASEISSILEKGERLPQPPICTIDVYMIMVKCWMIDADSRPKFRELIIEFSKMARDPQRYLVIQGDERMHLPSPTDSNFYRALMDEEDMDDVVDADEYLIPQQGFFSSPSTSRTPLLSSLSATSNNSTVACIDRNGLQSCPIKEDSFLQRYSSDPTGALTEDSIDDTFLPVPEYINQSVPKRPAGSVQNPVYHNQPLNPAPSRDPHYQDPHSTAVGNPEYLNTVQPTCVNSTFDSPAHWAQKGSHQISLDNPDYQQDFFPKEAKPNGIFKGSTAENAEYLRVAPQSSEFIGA

For assay [4], the target named is Ba/F3 L858R/T790M/C797S EGFR triple mutant cell line (Homo sapiens, UniProt P00533, T790M/C797S/L858R, cells depend on it). Description: Cell proliferation inhibition experiment (CellTiter-Glo), Ba/F3 L858R/T790M/C797S. The assay is classed as cell-based. The settings on record: 72 hours, Cell Titer-Glo, read-out: Ba/F3 (L858R/T790M/C797S) IC50.
Sequence of Ba/F3 L858R/T790M/C797S EGFR triple mutant cell line (P00533 whole entry T790M/C797S/L858R): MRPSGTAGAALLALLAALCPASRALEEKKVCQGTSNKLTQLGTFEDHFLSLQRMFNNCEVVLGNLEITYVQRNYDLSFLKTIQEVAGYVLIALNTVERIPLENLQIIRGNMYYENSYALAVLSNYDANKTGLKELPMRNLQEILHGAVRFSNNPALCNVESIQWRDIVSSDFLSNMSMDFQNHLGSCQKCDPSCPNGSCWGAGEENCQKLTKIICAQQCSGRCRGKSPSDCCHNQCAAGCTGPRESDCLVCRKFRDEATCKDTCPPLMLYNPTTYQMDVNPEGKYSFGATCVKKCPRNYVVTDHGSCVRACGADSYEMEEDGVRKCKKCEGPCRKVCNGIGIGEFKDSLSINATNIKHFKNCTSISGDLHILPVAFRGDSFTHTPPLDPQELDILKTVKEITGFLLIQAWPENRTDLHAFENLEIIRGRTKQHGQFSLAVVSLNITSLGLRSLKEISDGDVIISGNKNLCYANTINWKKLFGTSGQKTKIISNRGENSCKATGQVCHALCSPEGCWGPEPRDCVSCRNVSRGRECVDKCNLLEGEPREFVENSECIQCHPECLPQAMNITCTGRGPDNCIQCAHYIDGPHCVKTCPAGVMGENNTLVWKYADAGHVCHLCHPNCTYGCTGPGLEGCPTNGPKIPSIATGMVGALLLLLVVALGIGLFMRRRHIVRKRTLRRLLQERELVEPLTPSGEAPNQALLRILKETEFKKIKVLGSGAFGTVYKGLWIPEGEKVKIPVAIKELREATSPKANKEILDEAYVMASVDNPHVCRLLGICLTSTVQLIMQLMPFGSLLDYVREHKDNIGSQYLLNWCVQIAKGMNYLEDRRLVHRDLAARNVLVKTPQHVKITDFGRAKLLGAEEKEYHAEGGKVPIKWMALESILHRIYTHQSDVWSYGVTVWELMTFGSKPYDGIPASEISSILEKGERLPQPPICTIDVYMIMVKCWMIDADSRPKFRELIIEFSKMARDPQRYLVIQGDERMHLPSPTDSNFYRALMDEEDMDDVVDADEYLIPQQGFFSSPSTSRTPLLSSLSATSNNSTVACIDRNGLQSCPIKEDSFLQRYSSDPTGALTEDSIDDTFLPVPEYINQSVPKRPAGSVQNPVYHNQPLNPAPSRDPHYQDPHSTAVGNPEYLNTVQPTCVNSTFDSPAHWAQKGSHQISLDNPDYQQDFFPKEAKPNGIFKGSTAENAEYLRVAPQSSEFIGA

T1 sequence (P00533 25-1210): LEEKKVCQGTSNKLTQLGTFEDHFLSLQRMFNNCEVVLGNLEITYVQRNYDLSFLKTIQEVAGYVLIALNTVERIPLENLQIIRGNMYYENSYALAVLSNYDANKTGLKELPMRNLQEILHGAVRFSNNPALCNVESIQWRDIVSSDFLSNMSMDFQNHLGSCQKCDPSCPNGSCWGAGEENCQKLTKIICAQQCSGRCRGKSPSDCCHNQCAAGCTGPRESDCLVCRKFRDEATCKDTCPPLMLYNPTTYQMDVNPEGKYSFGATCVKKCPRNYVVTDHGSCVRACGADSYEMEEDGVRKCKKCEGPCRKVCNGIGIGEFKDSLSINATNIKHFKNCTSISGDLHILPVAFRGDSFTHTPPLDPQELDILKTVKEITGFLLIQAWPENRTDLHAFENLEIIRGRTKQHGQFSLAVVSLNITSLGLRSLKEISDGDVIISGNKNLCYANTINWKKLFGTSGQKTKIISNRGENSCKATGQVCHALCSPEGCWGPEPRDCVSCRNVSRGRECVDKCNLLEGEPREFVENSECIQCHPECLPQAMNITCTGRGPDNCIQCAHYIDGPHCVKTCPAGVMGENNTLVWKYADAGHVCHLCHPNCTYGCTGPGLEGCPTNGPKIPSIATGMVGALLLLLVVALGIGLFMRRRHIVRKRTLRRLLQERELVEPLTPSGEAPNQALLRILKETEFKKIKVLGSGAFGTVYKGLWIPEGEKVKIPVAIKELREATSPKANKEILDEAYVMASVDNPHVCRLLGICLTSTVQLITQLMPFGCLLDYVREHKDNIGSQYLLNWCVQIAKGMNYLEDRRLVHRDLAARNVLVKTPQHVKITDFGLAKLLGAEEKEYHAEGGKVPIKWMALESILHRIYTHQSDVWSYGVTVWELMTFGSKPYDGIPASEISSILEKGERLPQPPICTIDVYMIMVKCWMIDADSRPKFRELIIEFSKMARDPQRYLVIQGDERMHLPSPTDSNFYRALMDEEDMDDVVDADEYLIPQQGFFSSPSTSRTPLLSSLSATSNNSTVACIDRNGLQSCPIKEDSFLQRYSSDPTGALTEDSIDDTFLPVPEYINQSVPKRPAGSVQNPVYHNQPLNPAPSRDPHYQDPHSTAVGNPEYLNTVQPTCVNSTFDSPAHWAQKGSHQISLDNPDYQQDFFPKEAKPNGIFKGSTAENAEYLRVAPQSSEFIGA

As to `COc1cc(N2CCC(F)CC2)c(-c2cnn(C)c2)cc1Nc1ncc(Br)c(Nc2ccc3nccnc3c2P(C)(C)=O)n1` [compound 124], the IC50 was 8.35 nM on wild-type EGFR, 1.2 nM in assay [1] and 516 nM in assay [2]. The values for the GI50 in assay [3] and in assay [4] were 3.93 nM and 7.93 nM, respectively.

In the case of `COc1cc(N2CCOCC2)c(-c2cnn(C)c2)cc1Nc1ncc(Br)c(Nc2ccccc2NS(=O)(=O)C2CC2)n1` [compound 125], the IC50 was 23.8 nM at wild-type EGFR, 0.53 nM in assay [1] and 490 nM in assay [2]. Also, the GI50 amounted to 5.87 nM in assay [3] and 14.4 nM in assay [4].

With `COc1cc(N2CCOCC2)c(-c2cnn(C)c2)cc1Nc1ncc(Br)c(Nc2ccc3nccnc3c2NS(C)(=O)=O)n1` [compound 126], the figures for the IC50 (on wild-type EGFR; in assay [1]; in assay [2]) were 1.55 nM, 0.15 nM and 286 nM, respectively. Moreover, the GI50 in assay [3] came to 0.93 nM; in assay [4] it was 3.81 nM.

With `COC[C@@H]1CN(c2cc(OC)c(Nc3ncc(Br)c(Nc4ccc5nccnc5c4P(C)(C)=O)n3)cc2-c2cnn(C)c2)CCO1` [compound 127], the IC50 worked out at 2.83 nM on wild-type EGFR, 0.24 nM in assay [1] and 170 nM in assay [2]. In addition, the figures for the GI50 in assay [3] and in assay [4] were 0.59 nM and 4.18 nM, respectively.

On to `COc1cc(N2CCC(OC)C2)c(-c2cnn(C)c2)cc1Nc1ncc(Br)c(Nc2ccc3nccnc3c2P(C)(C)=O)n1` (stereo not shown) [compound 128], for which the figures for the IC50 (on wild-type EGFR; in assay [1]; in assay [2]) were 6.83 nM, 0.53 nM and 397 nM, respectively. Also, the GI50 in assay [3] came to 2.86 nM; in assay [4], 11.9 nM.

As to `COc1cc(N2CCN3CCCC3C2)c(-c2cnn(C)c2)cc1Nc1ncc(Br)c(Nc2ccc3nccnc3c2P(C)(C)=O)n1` (stereo not shown) [compound 130], the IC50 was found to be 1.44 nM at wild-type EGFR, 0.05 nM in assay [1] and 73.5 nM in assay [2]. Further, the GI50 in assay [3] turned out to be 1 nM; in assay [4] it was 9 nM.

As to `COc1cc(N2CCN3CCCCC3C2)c(-c2cnn(C)c2)cc1Nc1ncc(Br)c(Nc2ccc3nccnc3c2P(C)(C)=O)n1` (stereo not shown) [compound 131], the IC50 on wild-type EGFR is 2.57 nM; in assay [1] it was 0.12 nM; in assay [2] it was 67.8 nM. In addition, the GI50 in assay [3] came out at 0.6 nM; in assay [4], 7.17 nM.

For the compound `COCCN1CCN(c2cc(OC)c(Nc3ncc(Br)c(Nc4ccccc4NS(C)(=O)=O)n3)cc2-c2cnn(C)c2)CC1` [compound 132], the IC50 was determined as 5.71 nM on wild-type EGFR, 0.07 nM in assay [1] and 270 nM in assay [2]. In addition, the GI50 in assay [3] worked out at 2.45 nM; in assay [4] it was 30 nM.

Take `COc1cc(N2CCC3(CCN(CCF)CC3)CC2)c(-c2cnn(C)c2)cc1Nc1ncc(Br)c(Nc2ccc3nccnc3c2P(C)(C)=O)n1` [compound 133, (6-((5-bromo-2-((4-(9-(2-fluoroethyl)-3,9-diazaspiro[5.5]undecan-3-yl)-2-methoxy-5-(1-methyl-1H-pyrazol-4-yl)phenyl)amino)pyrimidin-4-yl)amino)quinoxalin-5-yl)dimethylphosphine oxide]: the values for the IC50 (on wild-type EGFR; in assay [1]; in assay [2]) were 0.78 nM, 0.15 nM and 82.8 nM, respectively. Also, the figures for the GI50 in assay [3] and in assay [4] were 0.64 nM and 2.85 nM, respectively.

With `COc1cc(N2CCOC(C)C2)c(-c2cnn(C)c2)cc1Nc1ncc(Br)c(Nc2ccc3nccnc3c2P(C)(C)=O)n1` (stereo not shown) [compound 134], the IC50 on wild-type EGFR amounted to 3.57 nM; in assay [1], 0.21 nM; in assay [2], 316 nM. Besides, the GI50 amounted to 1.02 nM in assay [3] and 7.82 nM in assay [4].

`COc1cc(N2CCN(CCF)CC2)c(-c2cnn(C)c2)cc1Nc1ncc(Br)c(Nc2cc3c(cc2P(C)(C)=O)CC3)n1` [compound 138]: the figures for the IC50 (on wild-type EGFR; in assay [1]; in assay [2]) were 30.7 nM, 0.53 nM and 630 nM, respectively. Further, the GI50 stood at 9.31 nM in assay [3] and 11.9 nM in assay [4].

Turning to `COCCN1CCC2(CC1)CCN(c1cc(OC)c(Nc3ncc(Br)c(Nc4ccc5nccnc5c4P(C)(C)=O)n3)cc1-c1cnn(C)c1)CC2` [compound 139], the IC50 on wild-type EGFR was 0.57 nM; in assay [1], 0.24 nM; in assay [2], 61 nM. For the same compound, the figures for the GI50 in assay [3] and in assay [4] were 1.59 nM and 2.33 nM, respectively.

On to `COc1cc(N2CCOCC2)c(-c2ccn(C)n2)cc1Nc1ncc(Br)c(Nc2ccc3nccnc3c2P(C)(C)=O)n1` [compound 140], for which the values for the IC50 (at wild-type EGFR; in assay [1]; in assay [2]) were 94.6 nM, 5.44 nM and 3670 nM, respectively. Besides, the GI50 in assay [3] came out at 29.8 nM; in assay [4], 62 nM.

As for `[2H]C1([2H])OC([2H])([2H])C([2H])([2H])N(c2cc(OC)c(Nc3ncc(C)c(Nc4ccc5nccnc5c4P(C)(C)=O)n3)cc2-c2cnn(C)c2)C1([2H])[2H]` [compound 141], the figures for the IC50 (at wild-type EGFR; in assay [1]; in assay [2]) were 1.14 nM, 0.18 nM and 194 nM, respectively. Further, the GI50 in assay [3] came out at 2.26 nM; in assay [4] it was 5.16 nM.

Take `COc1cc(N2CCC(C)(O)CC2)c(-c2cnn(C)c2)cc1Nc1ncc(Br)c(Nc2ccc3nccnc3c2P(C)(C)=O)n1` [compound 142]: the IC50 on wild-type EGFR was determined as 1.16 nM; in assay [1] it was 0.25 nM; in assay [2] it was 196 nM. Moreover, the values for the GI50 in assay [3] and in assay [4] were 0.34 nM and 2.89 nM, respectively.

On to `[2H]C([2H])([2H])N(c1cc(OC)c(Nc2ncc(C)c(Nc3ccc4nccnc4c3P(C)(C)=O)n2)cc1-c1cnn(C)c1)C([2H])([2H])[2H]` [compound 143], for which the IC50 came to 1.75 nM at wild-type EGFR, 0.41 nM in assay [1] and 420 nM in assay [2]. The GI50 in assay [3] is 3.23 nM; in assay [4], 10.2 nM.

As to `COc1cc(N2CCC3(CC2)CN(C)CCO3)c(-c2cnn(C)c2)cc1Nc1ncc(Br)c(Nc2ccc3nccnc3c2P(C)(C)=O)n1` [compound 144, (6-((5-bromo-2-((2-methoxy-5-(1-methyl-1H-pyrazol-4-yl)-4-(4-methyl-1-oxa-4,9-diazaspiro[5.5]undecan-9-yl)phenyl)amino)pyrimidin-4-yl)amino)quinoxalin-5-yl)dimethylphosphine oxide], the IC50 worked out at 2.77 nM at wild-type EGFR, 0.66 nM in assay [1] and 84 nM in assay [2]. In addition, the GI50 in assay [3] is 0.35 nM; in assay [4], 1.91 nM.

Turning to `[2H]C([2H])([2H])N(c1cc(OC)c(Nc2ncc(Br)c(Nc3ccc4nccnc4c3P(C)(C)=O)n2)cc1-c1cnn(C)c1)C([2H])([2H])[2H]` [compound 145], the IC50 on wild-type EGFR amounted to 3.48 nM; in assay [1], 0.31 nM; in assay [2] it was 203 nM. Moreover, the GI50 in assay [3] amounted to 1.7 nM; in assay [4], 2.41 nM.

As to `COc1cc(N2CCC3(CN(C)CCO3)C2)c(-c2cnn(C)c2)cc1Nc1ncc(Br)c(Nc2ccc3nccnc3c2P(C)(C)=O)n1` (stereo not shown) [compound 146], the IC50 at wild-type EGFR was found to be 8.43 nM; in assay [1] it was 0.38 nM; in assay [2] it was 179 nM. The GI50 came out at 1.44 nM in assay [3] and 5.47 nM in assay [4].

With `COc1cc(N2CCOCC2)c(-c2cnn(C)c2)cc1Nc1ncc(Br)c(Nc2cc3c(cc2N(C)S(C)(=O)=O)CC3)n1` [compound 147, N-(4-((5-bromo-2-((2-methoxy-5-(1-methyl-1H-pyrazol-4-yl)-4-morpholinylphenyl)amino)pyrimidin-4-yl)amino)bicyclo[4.2.0]octa-1,3,5-trien-3-yl)-N-methylmethanesulfonamide], the IC50 on wild-type EGFR worked out at 53 nM; in assay [1] it was 1.16 nM; in assay [2], 475 nM. The GI50 was 1.3 nM in assay [3] and 2.93 nM in assay [4].

With `COc1cc(N2CCC3(CCN(CC(F)F)CC3)CC2)c(-c2cnn(C)c2)cc1Nc1ncc(Br)c(Nc2ccc3nccnc3c2P(C)(C)=O)n1` [compound 149], the IC50 is 78.5 nM at wild-type EGFR, 3.36 nM in assay [1] and 376 nM in assay [2]. The figures for the GI50 in assay [3] and in assay [4] were 1.62 nM and 3.21 nM, respectively.

With `COc1cc(N2CCN(C3COC3)CC2)c(-c2cnn(C)c2)cc1Nc1ncc(Br)c(Nc2ccc3nccnc3c2P(C)(C)=O)n1` [compound 150, (6-((5-bromo-2-((2-methoxy-5-(1-methyl-1H-pyrazol-4-yl)-4-(4-(oxetan-3-yl)piperazin-1-yl)phenyl)amino)pyrimidin-4-yl)amino)quinoxalin-5-yl)dimethylphosphine oxide], the IC50 on wild-type EGFR is 2.45 nM; in assay [1] it was 0.29 nM; in assay [2] it was 139 nM. The GI50 in assay [3] was 1.57 nM; in assay [4], 3.34 nM.

On to `COc1cc(N2CCC(OC(C)C)CC2)c(-c2cnn(C)c2)cc1Nc1ncc(Br)c(Nc2ccc3nccnc3c2P(C)(C)=O)n1` [compound 151], for which the IC50 was found to be 38.2 nM on wild-type EGFR, 2.2 nM in assay [1] and 318 nM in assay [2]. Moreover, the GI50 in assay [3] is 1.84 nM; in assay [4] it was 7.47 nM.
